Consider 52 compounds from the Kinase Knowledgebase extract (Sharma et al. 2016).

Chain of MAPK14 (human) (Q16539 whole entry, looked up): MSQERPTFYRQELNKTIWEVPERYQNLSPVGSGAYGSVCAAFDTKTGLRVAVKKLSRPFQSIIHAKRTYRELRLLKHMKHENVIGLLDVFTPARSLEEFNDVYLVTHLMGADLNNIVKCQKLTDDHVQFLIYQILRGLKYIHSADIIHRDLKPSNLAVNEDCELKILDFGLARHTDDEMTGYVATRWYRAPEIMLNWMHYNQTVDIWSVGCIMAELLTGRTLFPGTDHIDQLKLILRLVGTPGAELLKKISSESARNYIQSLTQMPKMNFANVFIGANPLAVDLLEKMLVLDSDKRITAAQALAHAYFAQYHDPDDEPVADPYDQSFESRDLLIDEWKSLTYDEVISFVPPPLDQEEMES

The first assay addresses MAPK14 (human) (UniProt Q16539). The experiment in a line: Inhibition of LPS-Induced TNF-alpha Production in THP-1 Cells. The note with it: thp1.
In turn, `O=C(Nc1ccc(Cl)c(COc2ccc(NCCO)nc2)c1)c1cc(F)cc(N2CCOCC2)c1` showed an IC50 of 0.97 µM.
The same measure, in the same setting: as for `O=C(Nc1ccc(Cl)c(COc2cnccn2)c1)c1cc(F)cc(N2CCOCC2)c1`, the figure is 0.21 µM.

The target in a further assay is MAPK14 (UniProt Q16539). The experiment in a line: Enzyme Assay.
Chain of MAPK14 (Q16539 whole entry, looked up): as above
Conditions: not given
In the case of `O=C(Nc1ccc(Cl)c(COc2ccc(NCCO)nc2)c1)c1cc(F)cc(N2CCOCC2)c1`, the IC50 is under 2 µM.
Same read-out and setting: as for `CN1CCC(CC(=O)Nc2cnc(OCc3c(Cl)cccc3Cl)cn2)CC1`, the figure is under 200 µM; as for `O=C(Nc1ccc(F)c(COc2cnccn2)c1)c1cc(N2CCOCC2)nc(N2CCOCC2)n1`, under 2 µM.
Take `CC(C)(C)OC(=O)Nc1ccc(Cl)c(COc2cnccn2)c1`: the IC50 was under 1000 µM.
The same measure, in the same setting: as for `CC(C)(CO)NC(=O)c1cnc(OCc2c(Cl)cccc2Cl)cn1`, the figure is under 20 µM.
The compound `O=C(Nc1ccc(F)c(COc2cccnc2)c1)c1ccccc1` showed an IC50 of under 200 µM.
`O=C(Nc1ccc(F)c(COc2cnccn2)c1)Nc1cc(-c2ccccc2)[nH]n1` returned an IC50 of under 2 µM.
The same measure, in the same setting: as for `c1cc(COc2cccnc2)cc(COc2cccnc2)c1`, the figure is under 1000 µM; as for `CCNC(=O)c1cnc(OCc2c(Cl)cccc2Cl)cn1`, under 1000 µM; as for `Clc1ncccc1OCc1ccccc1`, under 2000 µM.
On the same count and under the same terms, as for `O=C(Nc1ccc(Cl)c(COc2cccnc2)c1)c1cccc(F)c1`, the figure is under 200 µM; as for `Nc1ncccc1OCc1ccccc1CS(=O)(=O)c1ccccc1`, under 1000 µM.
`CC(C)(C)c1cc(C(=O)Nc2ccc(F)c(COc3cnccn3)c2)cc(C(C)(C)C)c1` came in with an IC50 of under 2 µM.
`Nc1ncccc1OCc1cc2c(cc1Cl)OCO2` gave an IC50 of under 1000 µM.
On the same count and under the same terms, as for `Nc1nccnc1OCc1cccc2ccccc12`, the figure is under 1000 µM.
`O=C(CN1CCCCC1)Nc1cnc(OCc2c(Cl)cccc2Cl)cn1` yielded an IC50 of under 200 µM.
The same measure, in the same setting: as for `CC1(C(=O)Nc2cnc(OCc3c(Cl)cccc3Cl)cn2)CC1`, the figure is under 200 µM; as for `O=C(Nc1ccc(F)c(COc2cnccn2)c1)c1ccc(=O)n(Cc2ccccc2)c1`, under 20 µM; as for `NS(=O)(=O)CCNC(=O)c1cnc(OCc2c(Cl)cccc2Cl)cn1`, under 1000 µM.
As for `O=C(Nc1ccc(F)c(COc2cnccn2)c1)Nc1cc(-c2ccc(Cl)cc2)nn1-c1ccc(F)cc1`, the IC50 was under 2 µM.
Take `O=C(Cn1ccnc1)Nc1cnc(OCc2c(Cl)cccc2Cl)cn1`: the IC50 was under 20 µM.
As to `CC(C)(C)c1cc(NC(=O)Nc2ccc(F)c(COc3cnccn3)c2)n(-c2ccc(S(C)(=O)=O)cc2)n1`, the IC50 was under 2 µM.
Same read-out and setting: as for `CC(C)c1nnc(NC(=O)Nc2ccc(F)c(COc3cnccn3)c2)s1`, the figure is under 20 µM; as for `CC(CO)(CO)NC(=O)c1cnc(OCc2c(Cl)cccc2Cl)cn1`, under 2 µM.
Turning to `O=C(Nc1ccc(Cl)c(COc2cccnc2)c1)c1cccc(Cl)c1`, the IC50 was under 20 µM.
Still for that read-out and setting: as for `O=C(Nc1ccc(Cl)c(COc2ccc(NCc3ccccc3)nc2)c1)c1cc(F)cc(N2CCOCC2)c1`, the figure is under 2 µM.
Still for that read-out and setting: as for `O=C(Nc1ccccc1)Oc1cccc(COc2cnccn2)c1`, the figure is under 200 µM; as for `Clc1cccc(Cl)c1COc1ccc(NCc2ccccc2)nc1`, under 200 µM; as for `Nc1ncccc1OCc1ccccc1-c1ccccc1`, under 10 µM.
For `COc1cc(C(=O)Nc2ccc(F)c(COc3cnccn3)c2)nc(Cl)n1`, the IC50 was under 1000 µM.
The same measure, in the same setting: as for `CC(C)c1nnc(NC(=O)Nc2ccc(F)c(COc3cccnc3)c2)s1`, the figure is under 20 µM; as for `Nc1ccncc1OCc1cccc2ccccc12`, under 1000 µM; as for `O=C(Nc1cnc(OCc2c(Cl)cccc2Cl)cn1)N1CCOCC1`, under 2 µM.
For the compound `O=C(Nc1ccc(F)c(COc2cnccn2)c1)Nc1cc(-c2ccc(Cl)cc2)nn1-c1ccccc1`, the IC50 was under 2 µM.
The same measure, in the same setting: as for `CC(C)(C)c1cc(C(=O)Nc2ccc(F)c(COc3cnccn3)c2)n(Cc2ccccc2)n1`, the figure is under 20 µM; as for `O=C(Nc1ccc(Cl)c(COc2cccnc2)c1)c1ccncc1`, under 200 µM.
The same measure, in the same setting: as for `O=C(Nc1ccc(Cl)c(COc2cnccn2)c1)c1cc(F)cc(N2CCOCC2)c1`, the figure is under 2 µM.
Consider `O=C(Nc1ccc(F)c(COc2cnccn2)c1)Nc1cc(C2CCOCC2)nn1-c1ccc(F)cc1`, for which the IC50 was under 2 µM.
On to `CC(C)(C)c1cc(NC(=O)Nc2ccc(F)c(COc3cnccn3)c2)n(-c2ccc(Cl)nn2)n1`, for which the IC50 was under 2 µM.
For the compound `CC(C)(C)c1cc(NC(=O)Nc2ccc(F)c(COc3cnccn3)c2)n(-c2nc3ccccc3s2)n1`, the IC50 was under 20 µM.
In the case of `OCCNc1cnc(OCc2c(Cl)cccc2Cl)cn1`, the IC50 was under 200 µM.
In turn, `O=C(Nc1cccc(COc2cccnc2)c1)c1cc(F)cc(N2CCOCC2)c1` returned an IC50 of under 20 µM.
`O=C(Nc1ccc(F)c(COc2cnccn2)c1)c1ccc(-c2ccccc2)cc1` displayed an IC50 of under 200 µM.
`Cc1cc(C)cc(COc2cccnc2N)c1` came in with an IC50 of under 200 µM.
On the same count and under the same terms, as for `CC(C)(C)c1cccc(C(=O)Nc2ccc(F)c(COc3cnccn3)c2)c1`, the figure is under 2 µM; as for `O=C1c2ccccc2C(=O)N1c1ccc(Cl)c(COc2cccnc2)c1`, under 1000 µM.
On to `CC(C)(C)c1cc(NC(=O)Nc2ccc(Cl)c(COc3cnccn3)c2)[nH]n1`, for which the IC50 is under 20 µM.
The same measure, in the same setting: as for `Nc1ccc(Cl)c(COc2cccnc2)c1`, the figure is under 1000 µM.
Still for that read-out and setting: as for `CC(C)(CO)NC(=O)Nc1cnc(OCc2c(Cl)cccc2Cl)cn1`, the figure is under 2 µM; as for `CC(C)(Cc1ccncc1)NC(=O)c1cnc(OCc2c(Cl)cccc2Cl)cn1`, under 20 µM; as for `O=C(Nc1ccc(F)c(COc2cccnc2)c1)c1cncc(N2CCOCC2)n1`, under 20 µM.
Consider `COc1ccccc1COc1cccnc1N`, for which the IC50 was under 1000 µM.
